Broadly, the solubility is the concentration that dissolves in the medium under given conditions. For orientation: IC50 means the point on the concentration scale where inhibition reaches its midpoint.

For series [1] the following is noted: amide bond, 14-membered ring.
Series [2] can be described thus: Solubility assay in phosphate buffer. Conditions: phosphate buffer, pH 7.4, aqueous buffer, kinetic from dmso stock, Solubility (μM), phosphate buffer 100 mM, pH 7.4, room temperature, 20-24 h, LC-UV.
Experimental: (§1) The aqueous solubility of selected example compounds was determined as follows; 6 μL of DMSO stock solution of the selected example was added to 594 μL phosphate buffer (100 mM, pH 7.4). The resulting mixture was equilibrated over night (20-24 h, Alligator Shaker, room temperature). The mixture was then filtered (Millex LH 0.45 μm) and the concentration/solubility was determined by LC-UV quantification.
Series [3] addresses human recombinant TAK1-TAB1 Kinase (TAK1 (1-303) and TAB1 (437-end)) (Homo sapiens (Human), UniProt O43318). As to the kind of experiment: TAK1 biochemical ADP-Glo kinase assay. Conditions: MBP substrate. In short, it runs like this:
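Inhibition of human recombinant TAK1-TAB1 kinase was measured with a Promega ADP-Glo luminescence assay in 384-well plates. Compounds in 5% DMSO were pre-incubated 10 min with 2 μl TAK1-TAB1 (7.5 ng/μl) in buffer of Tris pH 7.5, MgCl2, DTT and BSA. MBP substrate and ATP were then added for 1 hour at room temperature. ADP-Glo reagent and kinase detection substrate followed, luminescence was read on an Envision, and IC50 came from non-linear regression.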

In series [4] the test system is phosphorylated p38 (TAK1 activity) in THP-1 cells. As to the kind of experiment: Cell-based p38 phosphorylation assay (Western blot). The note with it: PMA-differentiated THP-1 cells, compound 30 minutes then 200 ng/ml LPS 30 minutes; for IC50: Homo sapiens, 0.5 h, read-out: IC50 (nM) in phospho-p38 cell assay. How it is done:
The cellular activity of example compounds 2, 3 and 9 and the comparative example (i.e. takinib) for inhibiting TAK1 activity was evaluated using an in vitro functional cell assay.
THP-1 cells were incubated at 37° C. in 5% CO2. THP-1 cells were cultured in RPMI 1640, 10% FBS, 1% Penicillin-Streptomycin.
THP-1 cells were treated with 100 nM phorbol 12-myristate 13-acetate (PMA) to induce macrophage differentiation and seeded at the density of 1×10^6 cells/well (2 ml/well in a 6-well plate) for 72 hours. The cell culture media was then replaced with PMA-free media and incubated for further 48 hours. Test compounds were prepared as 200×final assay concentration stocks in DMSO (final concentrations in the assay were 10-0.03 μM in 0.5% DMSO, details provided below). Following THP-1 cell differentiation, cells were treated with different concentrations of the control compound NG25 (CAS No.:1315355-93-1, Tan L, et al. J Med Chem. 2015, 58(1), 183-96) or test compounds (10 μl/well) for 30 minutes followed by 200 ng/ml LPS for 30 minutes.
Test items were kept as 10 mM stock solutions in 100% DMSO. The serial dilution of compounds was prepared as 200× serial dilutions of desired final concentration in […] to reach 0.5% DMSO working solution (see Table 3 below).
Dilution series of compounds from 10 μM final highest concentration to 0.03 μM final low concentration were first made in DMSO (see Table 3), 10 μl of each dilution was mixed into 2 ml of cell cultures (0.5% DMSO per well).
10 μl of DMSO was added to the control. All plates were incubated at 37° C., 5% CO2 for 30 minutes and LPS was added to a final concentration of 200 ng/ml.
For Western blot analysis, cells were lysed (50 mM Tris, 150 mM NaCl, 1 mM EDTA, 1% Triton-X100, 1 mM DTT, complete protease and PhosStop phosphatase inhibitor) after indicated treatment and run on NuPAGE Bis-Tris gel 4-12% gradient (Invitrogen). Following transfer to PVDF membrane and blocking in 5% BSA in PBST, membranes were incubated with primary antibody overnight (specific for phosphorylated p38; Cell Signaling, 1:1,000 dilution). After incubation with species-specific secondary antibodies for 1 hour at room temperature, the membranes were visualized with the ECL SuperSignal™ West Pico PLUS Chemiluminescent Substrate (Thermo Scientific). The images were captured with iBright Western Blot Imaging Systems (Invitrogen) and quantified with ImageJ software (Java-based image processing program developed at the National Institutes of Health and the Laboratory for Optical and Computational Instrumentation). Anti-β-actin antibodies were used as the loading control for whole-cell extracts in all samples (anti-β actin; Sigma-Aldrich, 1:5000 dilution, 1 hour incubation).
For immunoblotting, cells were lysed directly in six-well plates by incubating for 30 min at 4° C. in 60 μl Triton lysis buffer. The lysates were centrifuged for 15 minutes at 13,000×g at 4° C. Equal amount of protein from each supernatants were resuspended with 5× sample buffer. Samples were boiled for 10 minutes and then resolved by 4-12% SDS-PAGE (100 V). Proteins were transferred from gel to PVDF membranes ([…] pore size) following the recommended setting (90 minutes, 85 V). […]
A general note: In western blotting, separated proteins are transferred to a membrane and probed.

For series [5] the following is noted: pH 7.4.
Experimental: as §1
The conditions of series [6]: amide bond, 14-membered ring. The source holds these as a separate data set.
The mark [7] stands for this setting: 10 μM ATP, read-out: TAK1 Mean IC50 (nM) @ 10 μM ATP.

In brackets after ≈: the same amount, converted by molar mass. Where two headings read alike, the source gives them in different places.

Sequence of human recombinant TAK1-TAB1 Kinase (TAK1 (1-303) and TAB1 (437-end)) (O43318 other isoform, or with tags, fused parts or gaps): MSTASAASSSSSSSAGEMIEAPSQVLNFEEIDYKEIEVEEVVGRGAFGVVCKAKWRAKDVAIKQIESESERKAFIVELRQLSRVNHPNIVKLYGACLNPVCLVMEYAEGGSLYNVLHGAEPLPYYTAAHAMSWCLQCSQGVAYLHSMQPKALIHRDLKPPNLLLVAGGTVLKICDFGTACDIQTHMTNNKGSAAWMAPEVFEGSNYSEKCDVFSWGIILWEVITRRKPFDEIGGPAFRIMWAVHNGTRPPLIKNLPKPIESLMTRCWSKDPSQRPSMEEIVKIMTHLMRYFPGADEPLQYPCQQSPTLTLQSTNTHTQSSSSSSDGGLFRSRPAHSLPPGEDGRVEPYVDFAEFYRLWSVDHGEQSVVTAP

`C#Cc1cccc2nc3n(c12)[C@@H](C)CCCCNC(=O)c1cccc(c1)C(=O)N3`: the ring closure, isolated yield in series [1] (from C#Cc1cccc2nc(NC(=O)c3cccc(C(=O)O)c3)n([C@@H](C)CCCCN)c12, TCFH/NMI, MeCN/DMF, 0.82 mM, 0.0 °C, 4.0 h) stood at 73%.

The compound `CC1CCCCNC(=O)c2cccc(c2)C(=O)Nc2nc3cccc(N4CCCC4=O)c3n21` (centres unmarked) returned a ring closure, isolated yield in series [1] (from CC(CCCCN)n1c(NC(=O)c2cccc(C(=O)O)c2)nc2cccc(N3CCCC3=O)c21, TCFH/NMI, DMF/MeCN, 4.2 mM, 25.0 °C, 2.5 h) of 7.7%.

Consider `CCOC(=O)c1cnc(Cl)c2nc3n(c12)[C@@H](C)CCCCNC(=O)c1cccc(c1)C(=O)N3`, for which the ring closure, isolated yield in series [1] (from CCOC(=O)c1cnc(Cl)c2nc(NC(=O)c3cccc(C(=O)O)c3)n([C@@H](C)CCCCN)c12, TCFH/NMI, MeCN/DMF, 1.29 mM, 0.0 °C, 4.0 h) stood at 49%.

In the case of `COC(=O)c1cc(Br)cc2nc3n(c12)[C@@H](C)CCCCNC(=O)c1cccc(c1)C(=O)N3`, in series [1] (from COC(=O)c1cc(Br)cc2nc(NC(=O)c3cccc(C(=O)O)c3)n([C@@H](C)CCCCN)c12, TCFH/NMI, DMF/MeCN, 1.4 mM, 0.0 °C, 16.0 h), the ring closure, isolated yield worked out at 30%.

On to `C[C@H]1CCCCNC(=O)c2cccc(c2)C(=O)Nc2nc3ccnc(Cl)c3n21`, for which the ring closure, isolated yield in series [1] (from C[C@@H](CCCCN)n1c(NC(=O)c2cccc(C(=O)O)c2)nc2ccnc(Cl)c21, TCFH/NMI, DMF/MeCN, 0.6 mM, 25.0 °C, 3.0 h) turned out to be 20%.

Compound `Cc1nnc(-c2cccc3nc4n(c23)C(C)CCCCNC(=O)c2cccc(c2)C(=O)N4)o1` (centres unmarked) gave a ring closure, isolated yield in series [1] (from Cc1nnc(-c2cccc3nc(NC(=O)c4cccc(C(=O)O)c4)n(C(C)CCCCN)c23)o1, HATU/DIEA, THF, 0.5 mM, 25.0 °C, 16.0 h, 2 steps) of 13%.

`O=C1NCCCCCn2c(nc3ccccc32)NC(=O)c2cccc1c2` [Example 2, 1^1H-2,6-diaza-1(2,1)-benzo[d]imidazola-4(1,3)-benzenacycloundecaphane-3,5-dione] registered a solubility in series [2] of 0.5 µM (≈ 0.174 µg/mL). Besides, the IC50 in series [3] (setting [7]) amounted to 3 nM; in series [4], 200 nM. The compound also registered a ring closure, isolated yield in series [1] (from NCCCCCn1c(NC(=O)c2cccc(C(=O)O)c2)nc2ccccc21, HATU/DIEA, DMF, 51.0 mM, 25.0 °C, 16.0 h) of 2%.

`CN1CCN(Cc2ccc3c(c2)nc2n3CCCCCNC(=O)c3cccc(c3)C(=O)N2)CC1` [Example 3, 1^5-((4-methylpiperazin-1-yl)methyl)-1^1H-2,6-diaza-1(2,1)-benzo[d]imidazola-4(1,3)-benzenacycloundecaphane-3,5-dione]: in series [2], the solubility was 31.5 µM (≈ 14.5 µg/mL). Moreover, the IC50 in series [3] (setting [7]) came to 1 nM; in series [4], 4.5 nM. Also, in series [1] (from CN1CCN(Cc2ccc3c(c2)nc(NC(=O)c2cccc(C(=O)O)c2)n3CCCCCN)CC1, HATU/DIEA, DMF, 2.4 mM, 1.17 h), the ring closure, isolated yield was found to be 13%.

For the compound `O=C1NCCCCCn2c(nc3cccc(C(=O)O)c32)NC(=O)c2cccc1c2` [Example 18, (E)-3,5-dioxo-1^2,1^3-dihydro-1^1H-2,6-diaza-1(2,1)-benzo[d]imidazola-4(1,3)-benzenacycloundecaphane-1^7-carboxylic acid], the IC50 in series [3] (setting [7]) amounted to 9 nM. Also, the “solubility” value in series [5] was determined as 95.0 µM (≈ 37.3 µg/mL).

In turn, `C[C@@H]1CCCCNC(=O)c2cccc(c2)C(=O)Nc2nc3cccc(N4CCN(C)C4=O)c3n21` [Example 65, (R,E)-11-methyl-1^7-(3-methyl-2-oxoimidazolidin-1-yl)-1^2,1^3-dihydro-1^1H-2,6-diaza-1(2,1)-benzo[d]imidazola-4(1,3)-benzenacycloundecaphane-3,5-dione] came in with a solubility in series [2] of 95 µM (≈ 43.8 µg/mL). In addition, the IC50 in series [3] (setting [7]) stood at 4 nM. This compound also gave a ring closure, isolated yield in series [1] (from C[C@H](CCCCN)n1c(NC(=O)c2cccc(C(=O)O)c2)nc2cccc(N3CCN(C)C3=O)c21, HATU/DIEA, THF, 0.5 mM, 25.0 °C, 96.0 h) of 15%.

In series [2], `C[C@@H]1CCCCNC(=O)c2cccc(c2)C(=O)Nc2nc3cccc(-c4cn(C)nn4)c3n21` [Example 66, (R,E)-11-methyl-1^7-(1-methyl-1H-1,2,3-triazol-4-yl)-1^2,1^3-dihydro-1^1H-2,6-diaza-1(2,1)-benzo[d]imidazola-4(1,3)-benzenacycloundecaphane-3,5-dione] displayed a solubility of 5.2 µM (≈ 2.31 µg/mL). The IC50 in series [3] (setting [7]) stood at 3 nM. In series [6] (from C[C@H](CCCCN)n1c(NC(=O)c2cccc(C(=O)O)c2)nc2cccc(-c3cn(C)nn3)c21, HATU/DIEA, THF, 0.48 mM, 25.0 °C, 78.0 h), this compound came in with a ring closure, yield after HPLC of 5%.

Take `O=C1NCCCCCn2c(nc3cc(F)ccc32)NC(=O)c2cccc1c2` [Example 99, (E)-1^5-fluoro-1^2,1^3-dihydro-1^1H-2,6-diaza-1(2,1)-benzo[d]imidazola-4(1,3)-benzenacycloundecaphane-3,5-dione]: the solubility in series [2] was 0.2 µM (≈ 0.0733 µg/mL). In addition, the IC50 in series [3] (setting [7]) came to 4 nM. This compound gave a ring closure, yield after HPLC in series [6] (from NCCCCCn1c(NC(=O)c2cccc(C(=O)O)c2)nc2cc(F)ccc21, HATU/DIEA, THF, 0.5 mM, 50.0 °C, 16.0 h) of 16%.

With `CN1CCN(Cc2ccc3c(c2)nc2n3CCCCCNC(=O)c3cccc(n3)C(=O)N2)CC1` [Example 102, (E)-1^5-((4-methylpiperazin-1-yl)methyl)-1^2,1^3-dihydro-1^1H-2,6-diaza-1(2,1)-benzo[d]imidazola-4(2,6)-pyridinacycloundecaphane-3,5-dione], the solubility in series [2] is 88 µM (≈ 40.6 µg/mL). Besides, in series [3] (setting [7]), the 50% inhibitory concentration (IC50) amounted to 9 nM. The compound further came in with a ring closure, yield after HPLC in series [6] (from CN1CCN(Cc2ccc3c(c2)nc(NC(=O)c2cccc(C(=O)O)n2)n3CCCCCN)CC1, T3P/DIEA, DMF, 50.0 mM, 25.0 °C, 1.5 h) of 30%.

On to `CCCn1c(NC(=O)c2cccc(C(N)=O)c2)nc2ccccc21` [takinib, N-(1-propyl-1H-benzo[d]imidazol-2-yl)isophthalamide, reference compound], for which the solubility in series [2] was 0.9 µM (≈ 0.29 µg/mL). Further, the IC50 in series [3] (setting [7]) amounted to 17 nM; in series [3] (1 mM ATP, read-out: TAK1 Mean IC50 (nM) @ 1 mM ATP), 280 nM. For the same compound, the “IC50 (nM) in phospho-p38 cell assay” value in series [4] is “inactive”.

For the origin of these results see US20240279233A1, “MACROCYCLIC TAK1 INHIBITORS” (Aqilion AB, priority 2021, published 2024).
